Activity calls are given as the source filed them.
Legend:
[1] = target: T1, Estrogen receptor (Homo sapiens, UniProt P03372);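 also: potency for inhibiting coactivator peptide recruitment to the receptor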
T1 sequence (P03372 whole entry): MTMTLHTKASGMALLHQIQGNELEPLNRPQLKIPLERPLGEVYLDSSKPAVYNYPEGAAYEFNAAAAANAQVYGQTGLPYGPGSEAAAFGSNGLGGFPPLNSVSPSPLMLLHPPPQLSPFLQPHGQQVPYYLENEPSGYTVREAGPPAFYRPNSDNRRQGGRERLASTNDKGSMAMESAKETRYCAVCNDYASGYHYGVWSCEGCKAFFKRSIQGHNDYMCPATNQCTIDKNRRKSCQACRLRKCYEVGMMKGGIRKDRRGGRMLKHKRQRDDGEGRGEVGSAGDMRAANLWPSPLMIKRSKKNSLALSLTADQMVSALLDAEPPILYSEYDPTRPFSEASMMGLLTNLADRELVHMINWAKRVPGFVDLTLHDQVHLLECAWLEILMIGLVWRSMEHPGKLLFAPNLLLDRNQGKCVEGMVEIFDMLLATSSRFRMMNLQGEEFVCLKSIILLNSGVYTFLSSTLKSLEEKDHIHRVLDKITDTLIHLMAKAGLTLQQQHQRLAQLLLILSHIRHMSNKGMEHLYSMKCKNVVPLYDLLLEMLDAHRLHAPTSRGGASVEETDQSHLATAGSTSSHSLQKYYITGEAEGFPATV

[2] = target: T2, Carboxy-terminal domain RNA polymerase II polypeptide A small phosphatase 1 (Homo sapiens, UniProt Q9GZU7); test: CTDSP1 inhibitors, concentration-response, biochemical, absorbance readout, ultra-high-throughput screen actives (AID 540297); type: functional
T2 sequence (Q9GZU7 whole entry): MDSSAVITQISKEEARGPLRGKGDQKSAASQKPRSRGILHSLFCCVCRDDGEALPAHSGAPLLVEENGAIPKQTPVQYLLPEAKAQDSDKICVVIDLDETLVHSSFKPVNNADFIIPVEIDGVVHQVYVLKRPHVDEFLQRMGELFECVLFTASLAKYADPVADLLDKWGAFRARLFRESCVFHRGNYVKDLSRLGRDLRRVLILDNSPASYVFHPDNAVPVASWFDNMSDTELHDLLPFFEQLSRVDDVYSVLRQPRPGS

[3] = blockers of HIV-1 envelope-mediated cell-cell fusion – cherry-pick, dose response (AID 652057); type: functional, cell-based
[4] = blockers of HIV-1 ZM109 envelope-driven cell-cell fusion – HeLa effector, CEM target cells, luciferase, cherry-pick, dose response (AID 652058); type: functional, cell-based;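 also: luciferase signal from HIV-1 Env mediated cell-cell fusion of effector and target cells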
[5] = off-target signal loss in HeLa-CEM21 co-culture – HeLa F-luc CTL cells, cherry-picked, counter-screen for HIV-1 Env fusion inhibitor project, dose response (AID 652040); type: functional, cell-based;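 also: potency for signal decrease marking cytotoxic or nonspecific inhibition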
[6] = HIV-1 AD8 envelope cell-cell fusion blockers – cherry-pick, dose response (AID 652062); type: functional, cell-based;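 also: luciferase signal from cell-cell fusion driven by HIV-1 clade B AD8 Env; potency is for inhibitors of fusion seen as a drop in luminescence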
[7] = microbe, parasite or virus in culture; type: functional; conditions: Mycobacterium tuberculosis
[8] = viability of PTEN-deleted HCT116 cells – cell-based, HCT116 PTEN knockout, dose response (AID 1047); type: functional;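 also: HCT116 colon tumor cells with PTEN knocked out; cells exposed to compound for 60 hours before readout; potency for loss of cell viability measured by luminescence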
[9] = viability of HCT116 lacking mutant beta-catenin – cell-based, human colon tumor, dose response (AID 1045); type: functional;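 also: HCT116 colon tumor cells with beta catenin knocked out; cells exposed to compound for 60 hours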
[10] = P. falciparum Dd2 growth inhibitors, dose response, SYBR Green, cherry-picked samples (AID 1159567); type: functional, cell-based
[11] = target: Glucose-6-phosphate 1-dehydrogenase (Homo sapiens, UniProt P11413); test: inhibition of Homo sapiens G6PD, dose series – biochemical, fluorescence, selectivity assay for P. falciparum G6PD inhibitor project, dose response (AID 504792); type: functional
[12] = cells; type: functional, cell-based
[13] = target: T3, Nuclear receptor subfamily 0 group B member 1 (Homo sapiens, UniProt P51843); type: functional, cell-based;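 also: HEK293T cells transfected with SF-1 and DAX-1 plus StAR promoter luciferase reporter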
T3 sequence (P51843 whole entry): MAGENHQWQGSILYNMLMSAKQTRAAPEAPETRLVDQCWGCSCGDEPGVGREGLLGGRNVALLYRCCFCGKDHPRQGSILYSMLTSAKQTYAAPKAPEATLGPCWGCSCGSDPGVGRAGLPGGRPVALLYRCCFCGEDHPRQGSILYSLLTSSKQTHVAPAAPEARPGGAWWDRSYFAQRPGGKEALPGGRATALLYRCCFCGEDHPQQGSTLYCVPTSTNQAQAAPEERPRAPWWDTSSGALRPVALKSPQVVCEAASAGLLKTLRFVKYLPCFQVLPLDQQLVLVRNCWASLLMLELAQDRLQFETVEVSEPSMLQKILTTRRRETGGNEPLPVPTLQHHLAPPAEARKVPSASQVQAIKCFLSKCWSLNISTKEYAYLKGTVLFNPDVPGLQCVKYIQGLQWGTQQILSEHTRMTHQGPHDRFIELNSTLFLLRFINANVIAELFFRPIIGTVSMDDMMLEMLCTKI

[14] = viability loss in THP-1 monocytes – THP-1 cells, cytotoxicity control for Vif-APOBEC3G degradation inhibitor project, dose response (AID 1117359); type: functional; conditions: THP-1
[15] = Luminescence Cell-Based Dose Retest to Confirm Inhibitors of Cancer Stem Cells. [Related pubchem assays (depositor defined):AID2717, AID2721]; type: functional; conditions: Homo sapiens
[16] = Luminescence Cell-Based Dose Confirmation HTS to Identify Activators of 5'UTR Stem-Loop Driven Alpha-Synuclein mRNA Translation in H4 Neuroglioblastoma Cells. [Related pubchem assays: 1829 (Project Summary), 1814 (Primary HTS)]; type: functional
[17] = Luminescence Cell-Based Dose Response HTS to Identify Activators of Luciferase Translation or Activity in H4 […] Cells. [Related pubchem assays: 1829 (Project Summary), 1814 (Primary HTS)]; type: functional
[18] = test system: H4; test: Luminescence Cell-Based Dose Response HTS to Identify Activators of 5'UTR Stem-Loop Driven Prion Protein mRNA Translation in H4 Neuroglioblastoma Cells. [Related pubchem assays: 1829 (Project Summary), 1814 (Primary HTS)]; type: functional; conditions: Homo sapiens
[19] = target: Cytochrome P450 2D6 (Homo sapiens, UniProt P10635);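 also: CYP2D6 member of a cytochrome P450 panel assay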
[20] = target: Cytochrome P450 3A4 (Homo sapiens, UniProt P08684);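 also: CYP3A4 tested as one member of a cytochrome P450 panel screen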
[21] = target: T4, Replicative DNA helicase DnaB (Mycobacterium tuberculosis, UniProt P9WMR3); test: DnaB intein splicing inhibitors, dose response, biochemical, cell-free fluorescence (AID 449749); type: functional
T4 sequence (P9WMR3 whole entry): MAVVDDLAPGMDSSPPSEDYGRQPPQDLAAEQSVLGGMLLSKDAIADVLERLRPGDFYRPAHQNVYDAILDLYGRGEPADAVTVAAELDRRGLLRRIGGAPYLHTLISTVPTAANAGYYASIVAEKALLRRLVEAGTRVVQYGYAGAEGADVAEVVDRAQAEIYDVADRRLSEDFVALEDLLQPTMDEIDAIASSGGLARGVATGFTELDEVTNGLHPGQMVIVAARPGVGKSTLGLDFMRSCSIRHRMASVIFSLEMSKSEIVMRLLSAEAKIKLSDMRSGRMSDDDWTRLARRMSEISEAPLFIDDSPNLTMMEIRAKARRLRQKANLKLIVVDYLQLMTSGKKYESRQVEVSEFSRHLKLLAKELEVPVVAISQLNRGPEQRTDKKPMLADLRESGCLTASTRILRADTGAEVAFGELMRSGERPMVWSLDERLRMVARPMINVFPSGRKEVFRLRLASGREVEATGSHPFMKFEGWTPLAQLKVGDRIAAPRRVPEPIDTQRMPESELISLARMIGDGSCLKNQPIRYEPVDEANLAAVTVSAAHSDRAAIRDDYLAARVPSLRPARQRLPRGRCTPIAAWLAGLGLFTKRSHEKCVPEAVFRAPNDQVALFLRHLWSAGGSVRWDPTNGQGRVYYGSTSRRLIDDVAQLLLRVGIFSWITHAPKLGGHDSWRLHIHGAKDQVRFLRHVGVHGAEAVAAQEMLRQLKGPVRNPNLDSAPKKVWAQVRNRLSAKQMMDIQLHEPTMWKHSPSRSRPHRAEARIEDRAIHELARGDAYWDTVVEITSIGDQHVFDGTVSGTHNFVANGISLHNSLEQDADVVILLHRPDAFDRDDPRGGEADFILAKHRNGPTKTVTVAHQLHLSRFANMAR

[22] = target: T5, Protein RecA (Mycobacterium tuberculosis, UniProt P9WHJ3); test: Fluorescence Cell-Free Homogeneous Dose Retest to Identify Inhibitors of RecA-Intein Splicing Activity. [Related pubchem assays (depositor defined):AID2097, AID2223, AID489010, AID492950]; type: functional
T5 sequence (P9WHJ3 whole entry): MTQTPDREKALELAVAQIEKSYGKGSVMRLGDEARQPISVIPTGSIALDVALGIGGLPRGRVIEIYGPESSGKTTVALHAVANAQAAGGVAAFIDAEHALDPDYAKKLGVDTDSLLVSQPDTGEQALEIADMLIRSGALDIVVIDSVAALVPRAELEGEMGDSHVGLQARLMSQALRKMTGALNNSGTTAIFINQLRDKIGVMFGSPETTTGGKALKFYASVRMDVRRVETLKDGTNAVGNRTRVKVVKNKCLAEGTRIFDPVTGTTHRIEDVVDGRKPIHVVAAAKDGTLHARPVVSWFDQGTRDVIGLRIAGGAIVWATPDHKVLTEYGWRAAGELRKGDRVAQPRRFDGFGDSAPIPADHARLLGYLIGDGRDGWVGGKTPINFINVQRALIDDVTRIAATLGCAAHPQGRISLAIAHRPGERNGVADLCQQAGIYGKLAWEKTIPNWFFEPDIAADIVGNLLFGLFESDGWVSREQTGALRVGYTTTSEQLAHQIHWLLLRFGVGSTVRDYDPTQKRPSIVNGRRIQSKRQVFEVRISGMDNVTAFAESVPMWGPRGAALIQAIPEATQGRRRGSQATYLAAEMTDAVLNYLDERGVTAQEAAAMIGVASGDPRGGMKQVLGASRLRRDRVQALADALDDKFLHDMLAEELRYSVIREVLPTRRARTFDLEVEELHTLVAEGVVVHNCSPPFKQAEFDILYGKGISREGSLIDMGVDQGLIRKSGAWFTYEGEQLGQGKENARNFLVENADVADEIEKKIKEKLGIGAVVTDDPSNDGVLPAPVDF

Glucose-6-phosphate 1-dehydrogenase, sequence (P11413 whole entry): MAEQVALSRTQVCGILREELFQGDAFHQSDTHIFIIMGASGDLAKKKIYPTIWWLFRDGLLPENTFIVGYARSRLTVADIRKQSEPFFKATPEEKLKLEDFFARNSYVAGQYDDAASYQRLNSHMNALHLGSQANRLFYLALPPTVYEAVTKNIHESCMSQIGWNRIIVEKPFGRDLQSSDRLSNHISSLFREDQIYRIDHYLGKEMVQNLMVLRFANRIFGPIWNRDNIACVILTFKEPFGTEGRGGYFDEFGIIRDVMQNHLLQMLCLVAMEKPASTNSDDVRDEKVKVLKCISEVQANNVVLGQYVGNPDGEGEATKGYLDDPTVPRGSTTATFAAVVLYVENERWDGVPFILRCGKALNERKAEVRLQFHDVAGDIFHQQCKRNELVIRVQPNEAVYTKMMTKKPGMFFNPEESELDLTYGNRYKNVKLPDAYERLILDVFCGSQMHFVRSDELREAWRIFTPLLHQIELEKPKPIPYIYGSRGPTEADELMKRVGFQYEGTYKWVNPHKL
Cytochrome P450 3A4, sequence (P08684 whole entry): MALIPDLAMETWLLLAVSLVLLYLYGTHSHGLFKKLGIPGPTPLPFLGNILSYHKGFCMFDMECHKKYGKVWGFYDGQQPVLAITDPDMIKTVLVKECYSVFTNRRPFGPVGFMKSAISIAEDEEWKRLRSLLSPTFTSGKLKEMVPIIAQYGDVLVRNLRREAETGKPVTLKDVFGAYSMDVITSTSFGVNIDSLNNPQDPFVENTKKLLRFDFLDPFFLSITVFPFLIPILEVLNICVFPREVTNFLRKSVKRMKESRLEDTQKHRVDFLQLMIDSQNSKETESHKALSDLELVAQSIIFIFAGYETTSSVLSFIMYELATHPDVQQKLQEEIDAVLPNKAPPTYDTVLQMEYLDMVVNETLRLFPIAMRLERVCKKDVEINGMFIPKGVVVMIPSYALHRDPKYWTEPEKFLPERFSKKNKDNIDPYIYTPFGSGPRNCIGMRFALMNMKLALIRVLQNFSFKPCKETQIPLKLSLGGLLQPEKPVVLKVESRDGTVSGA
Cytochrome P450 2D6, sequence (P10635 whole entry): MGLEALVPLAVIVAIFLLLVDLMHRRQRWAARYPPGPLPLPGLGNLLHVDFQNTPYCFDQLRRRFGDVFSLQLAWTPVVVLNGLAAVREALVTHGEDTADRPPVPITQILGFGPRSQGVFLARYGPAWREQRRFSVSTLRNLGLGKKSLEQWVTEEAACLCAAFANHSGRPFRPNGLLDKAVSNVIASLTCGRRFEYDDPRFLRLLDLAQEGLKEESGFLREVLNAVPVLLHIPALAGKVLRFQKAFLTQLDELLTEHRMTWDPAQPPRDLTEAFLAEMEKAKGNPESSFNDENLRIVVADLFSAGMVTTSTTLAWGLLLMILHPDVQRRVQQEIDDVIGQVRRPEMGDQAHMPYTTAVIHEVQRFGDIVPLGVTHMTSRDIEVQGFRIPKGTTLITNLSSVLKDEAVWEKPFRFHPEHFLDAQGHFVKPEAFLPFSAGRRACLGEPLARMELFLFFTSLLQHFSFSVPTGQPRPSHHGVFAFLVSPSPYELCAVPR

## Cc1nnc(SCC(=O)NC(=O)NCc2ccco2)n1Cc1ccccc1
[1]
  IC50: < 1.56 µM (active)
[2]
  IC50: 5.15 µM (active)

## Cc1cc(NC(=O)CCC(=O)N(C2CC2)C2(C(=O)NC3CCCC3)CCC(C)CC2)no1 (centres undefined)
[3]
  AC50: 5.4 µM (active)
[4]
  AC50: 3.3 µM (active)
[5]
  AC50: 6.16 µM (active)
[6]
  AC50: 13.4 µM (active)

## CCOC(=O)N1CCc2c(sc(NC(=O)c3ccc(Cl)s3)c2C(N)=O)C1
[7]
  CC50: 17.3 µM (active)
[8]
  EC50: 15.7 µM (active)
[9]
  EC50: 19.4 µM (active)

## COc1cccc(NC(=O)N2CC(=O)N3[C@H](CO)[C@@H](c4ccc(C#CCC5CCCC5)cc4)[C@H]3C2)c1
[10]
  AC50: 8.6 µM (active)

## CN1C(=O)CSc2ccc(NC(=O)N3CCc4ccccc43)cc21
[11]
  IC50: > 80 µM (inactive)
[12]
  IC50: > 67.5 µM (inactive)
[13]
  IC50: > 67.5 µM (inactive)

## COc1ccc(NC(=O)/C(C#N)=C\c2ccc(Br)o2)cc1
[14]
  CC50: 3.4 µM (active)

## FC(F)(F)c1cccc(CN2[C@@H]3CNC[C@H]2[C@@H]3c2ccc(-c3cccnc3)cc2)c1
[10]
  AC50: 4.42 µM (active)

## Cc1ccc(-c2cc(-c3ccccc3C)[nH]n2)c(O)c1
[7]
  CC50: > 40 µM (active)
[15]
  AC50: 7.98 µM (active)

## COc1ccc(C#Cc2ccc3c(c2)[C@H]2[C@H](CCN2C(=O)C2CCC2)[C@H](CO)N3)cc1
[10]
  AC50: 3.3 µM (active)

## CC1(C)Cc2c(sc3c4nnnn4c4nnnn4c23)CO1
[1]
  IC50: 4.11 µM (active)

## CC(=O)C1=C(C)N(Cc2ccc(Cl)cc2)C(=S)NC1c1cccc(Br)c1 (centres undefined)
[3]
  AC50: 5.96 µM (active)
[4]
  AC50: 4.16 µM (active)
[5]
  AC50: 15.9 µM (active)
[6]
  AC50: 22.6 µM (active)

## C/C(Cn1nnc([N+](=O)[O-])n1)=N\NC(=O)c1ccccc1
[16]
  EC50: > 120 µM (not active)
[17]
  EC50: > 120 µM (not active)
[18]
  EC50: > 120 µM (not active)
[11]
  IC50: > 80 µM (inactive)

## COC(=O)c1cc(NC(=O)Cn2c(=O)cnc3ccccc32)cc(C(=O)OC)c1
[1]
  IC50: > 50 µM (not active)

## NCCc1c[nH]c2ccccc12 [TRYPTAMINE]
[14]
  CC50: > 40 µM (active)
[19]
  AC50: 31.6 µM (inconclusive)
[20]
  AC50: inconclusive

## CC[C@]1(C(=O)OC)[C@H]2C(=O)N(Cc3ccccc3)C(=O)[C@H]2[C@H]2CN=C(SCC3CC3)N21
[3]
  AC50: 1.12 µM (active)
[4]
  AC50: 1.45 µM (active)
[5]
  AC50: 2.66 µM (active)
[6]
  AC50: 5.46 µM (active)

## CN1CCN(c2cc(-c3ccccc3)nc3cc(-c4ccc(F)cc4)nn23)CC1
[7]
  CC50: 11.7 µM (active)
[8]
  EC50: 10.6 µM (active)
[9]
  EC50: 9.14 µM (active)

## Oc1ccc(C2c3sc(O)nc3SC3C4CCC(C4)C23)cc1 (centres undefined)
[1]
  IC50: > 50 µM (not active)

## O=C(NCCc1ccc(Cl)cc1)c1ccc(C[S+]([O-])Cc2ccc(Cl)cc2)o1 (centres undefined)
[7]
  CC50: > 40 µM (active)

## Oc1nnc(Cc2ncc(C(F)(F)F)cc2Cl)c2ccccc12
[14]
  CC50: > 40 µM (active)

## CCOc1ccccc1CNc1ccc(O)cc1
[11]
  IC50: > 80 µM (inactive)
[21]
  AC50: > 380 µM (inactive)
[22]
  EC50: 14 µM (active)

## CC[C@@]12C(=O)N(c3ccccc3)C(=O)N1[C@H](c1cccc(C)c1)[C@@H]1C(=O)N(Cc3ccccc3)C(=O)[C@@H]12
[3]
  AC50: 3.83 µM (active)
[4]
  AC50: 3.8 µM (active)
[5]
  AC50: 4.02 µM (active)
[6]
  AC50: 5.26 µM (active)

## CCC(=O)N1CCC2(CC1)CN(Cc1cccc(Cl)c1)[C@H](CO)c1c2c2ccc(OC)cc2n1C
[10]
  AC50: 4.8 µM (active)
